What was measured:
[1] = tested on: late watergrass; experiment: Test Example 1: herbicidal activity, application before weed generation under submerged conditions (Table 16, symbol A); format: in vivo, late watergrass (Echinochloa oryzicola); settings: amount of applied herbicide 320 g/ha
In short: (§1)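 Alluvial soil was flooded to 4 cm depth, weed seeds were sown mixed and 2.5-leaf rice seedlings were transplanted. On sowing day, the compound's emulsion, diluted in water to a set dose, was applied to the water surface. Plants grew at 25–30 °C and were scored 0–5 after three weeks.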

[2] = tested on: Japanese bulrush; experiment: Test Example 1: herbicidal activity, application before weed generation under submerged conditions (Table 16, symbol B); format: in vivo, Japanese bulrush (Schoenoplectus juncoides); settings: amount of applied herbicide 320 g/ha
In short: as §1

[3] = tested on: Japanese bulrush; experiment: Test Example 2: herbicidal activity, application during weed generation under submerged conditions (Table 17, symbol B); format: in vivo, Japanese bulrush (Schoenoplectus juncoides); settings: AAH 320 g/ha; application during weed generation, submerged conditions
In short: (§2)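 Alluvial soil in Wagner pots was flooded to 4 cm depth and sown with the three weeds together; pots were kept in a greenhouse at 25° C. to 30° C. At the one to two leaf stage, an emulsion formulation diluted in water to a set rate went onto the water surface; scored three weeks later.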

[4] = tested on: oval-leafed pondweed; experiment: Test Example 2: herbicidal activity, application during weed generation under submerged conditions (Table 17, symbol C); format: in vivo, oval-leafed pondweed (Monochoria vaginalis); settings: AAH 320 g/ha; application during weed generation, submerged conditions
In short: as §2

[5] = tested on: green foxtail; experiment: Test Example 4: herbicidal effect by soil treatment (Table 19, symbol G); format: in vivo, green foxtail (Setaria viridis); settings: amount of applied herbicide 320 g/ha
In short: (§3)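 In this soil treatment, the formulated compound reached the seeds only through the soil: seeds were buried about 1.5 cm deep in sterilized diluvial soil, then the diluted emulsion was sprayed over the surface. After three weeks at 25° C. to 30° C. in a greenhouse, effects were graded on criteria from an earlier test.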

[6] = tested on: wild oat; experiment: Test Example 4: herbicidal effect by soil treatment (Table 19, symbol I); format: in vivo, wild oat (Avena fatua); settings: amount of applied herbicide 320 g/ha
In short: as §3

[7] = tested on: blackgrass; experiment: Test Example 4: herbicidal effect by soil treatment (Table 19, symbol J); format: in vivo, blackgrass (Alopecurus myosuroides); settings: amount of applied herbicide 320 g/ha
In short: as §3

[8] = tested on: Italian ryegrass; experiment: Test Example 4: herbicidal effect by soil treatment (Table 19, symbol K); format: in vivo, Italian ryegrass (Lolium multiflorum); settings: amount of applied herbicide 320 g/ha
In short: as §3

[9] = tested on: velvetleaf; experiment: Test Example 4: herbicidal effect by soil treatment (Table 19, symbol M); format: in vivo, velvetleaf (Abutilon theophrasti); settings: amount of applied herbicide 320 g/ha
In short: as §3

[10] = tested on: redroot pigweed; experiment: Test Example 4: herbicidal effect by soil treatment (Table 19, symbol N); format: in vivo, redroot pigweed (Amaranthus retroflexus); settings: amount of applied herbicide 320 g/ha
In short: as §3

[11] = tested on: lambsquarters; experiment: Test Example 4: herbicidal effect by soil treatment (Table 19, symbol O); format: in vivo, lambsquarters (Chenopodium album); settings: amount of applied herbicide 320 g/ha
In short: as §3

[12] = tested on: persian speedwell; experiment: Test Example 4: herbicidal effect by soil treatment (Table 19, symbol R); format: in vivo, Persian speedwell (Veronica persica); settings: amount of applied herbicide 320 g/ha
In short: as §3

[13] = tested on: southern crabgrass; experiment: Test Example 5: herbicidal effect by foliage application, plastic box (Table 20, symbol F); format: in vivo, southern crabgrass (Digitaria ciliaris); settings: foliage application, 320 g/ha, three weeks after application
In short: (§4)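 Plants were sown into sterilized diluvial soil under about 1.5 cm cover and kept in a greenhouse at 25° C. to 30° C. Fourteen days on, foliage received an even spray of the diluted emulsion. Herbicidal or crop effect was judged three weeks afterwards.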

[14] = tested on: green foxtail; experiment: Test Example 5: herbicidal effect by foliage application, plastic box (Table 20, symbol G); format: in vivo, green foxtail (Setaria viridis); settings: foliage application, 320 g/ha, three weeks after application
In short: as §4

[15] = tested on: barnyard grass; experiment: Test Example 5: herbicidal effect by foliage application, plastic box (Table 20, symbol H); format: in vivo, barnyard grass (Echinochloa crus-galli); settings: foliage application, 320 g/ha, three weeks after application
In short: as §4

[16] = tested on: wild oat; experiment: Test Example 5: herbicidal effect by foliage application, plastic box (Table 20, symbol I); format: in vivo, wild oat (Avena fatua); settings: foliage application, 320 g/ha, three weeks after application
In short: as §4

[17] = tested on: blackgrass; experiment: Test Example 5: herbicidal effect by foliage application, plastic box (Table 20, symbol J); format: in vivo, blackgrass (Alopecurus myosuroides); settings: foliage application, 320 g/ha, three weeks after application
In short: as §4

[18] = tested on: Italian ryegrass; experiment: Test Example 5: herbicidal effect by foliage application, plastic box (Table 20, symbol K); format: in vivo, Italian ryegrass (Lolium multiflorum); settings: foliage application, 320 g/ha, three weeks after application
In short: as §4

[19] = tested on: windgrass; experiment: Test Example 5: herbicidal effect by foliage application, plastic box (Table 20, symbol L); format: in vivo, windgrass (Apera spica-venti); settings: foliage application, 320 g/ha, three weeks after application
In short: as §4

[20] = tested on: velvetleaf; experiment: Test Example 5: herbicidal effect by foliage application, plastic box (Table 20, symbol M); format: in vivo, velvetleaf (Abutilon theophrasti); settings: foliage application, 320 g/ha, three weeks after application
In short: as §4

SMILES	Herbicidal effect, A: late watergrass [1]	Herbicidal effect, B: Japanese bulrush [2]	herbicidal effect rating, B: Japanese bulrush [3]	herbicidal effect rating, C: oval-leafed pondweed [4]	G: green foxtail, herbicidal effect grade [5]	I: wild oat, herbicidal effect grade [6]	J: blackgrass, herbicidal effect grade [7]	K: Italian ryegrass, herbicidal effect grade [8]	M: velvetleaf, herbicidal effect grade [9]	N: redroot pigweed, herbicidal effect grade [10]	O: lambsquarters, herbicidal effect grade [11]	R: persian speedwell, herbicidal effect grade [12]	herbicidal effect on southern crabgrass (F) [13]	herbicidal effect on green foxtail (G) [14]	herbicidal effect on barnyard grass (H) [15]	herbicidal effect on wild oat (I) [16]	herbicidal effect on blackgrass (J) [17]	herbicidal effect on Italian ryegrass (K) [18]	herbicidal effect on windgrass (L) [19]	herbicidal effect on velvetleaf (M) [20]
Cc1nn(C)c(=O)c(-c2c(-c3ccc4c(c3)OCCO4)oc3ccccc23)c1O [8-002]	4 (Herbicidal rate of 70% or more and less than 90%)	5 (Herbicidal rate of 90% or more (almost completely withered))	4 (Herbicidal rate of 70% or more and less than 90%)	5 (Herbicidal rate of 90% or more (almost completely withered))	3 (Herbicidal rate of 40% or more and less than 70%)	0 (Herbicidal rate of 5% or less (almost no effect))	0 (Herbicidal rate of 5% or less (almost no effect))	0 (Herbicidal rate of 5% or less (almost no effect))	0 (Herbicidal rate of 5% or less (almost no effect))	2 (Herbicidal rate of 20% or more and less than 40%)	0 (Herbicidal rate of 5% or less (almost no effect))	5 (Herbicidal rate of 90% or more (almost completely withered))	1 (Herbicidal rate of 5% or more and less than 20%)	3 (Herbicidal rate of 40% or more and less than 70%)	4 (Herbicidal rate of 70% or more and less than 90%)	2 (Herbicidal rate of 20% or more and less than 40%)	0 (Herbicidal rate of 5% or less (almost no effect))	4 (Herbicidal rate of 70% or more and less than 90%)	1 (Herbicidal rate of 5% or more and less than 20%)	5 (Herbicidal rate of 90% or more (almost completely withered))
COc1ccc(-c2oc3ccc(F)cc3c2-c2c(O)c(C)nn(C)c2=O)cc1 [Compound No. 9-020, 4-(5-fluoro-2-(4-methoxyphenyl)benzofuran-3-yl)-5-hydroxy-2,6-dimethylpyridazin-3(2H)-one]	5 (Herbicidal rate of 90% or more (almost completely withered))	5 (Herbicidal rate of 90% or more (almost completely withered))	3 (Herbicidal rate of 40% or more and less than 70%)	3 (Herbicidal rate of 40% or more and less than 70%)	1 (Herbicidal rate of 5% or more and less than 20%)	2 (Herbicidal rate of 20% or more and less than 40%)	3 (Herbicidal rate of 40% or more and less than 70%)	5 (Herbicidal rate of 90% or more (almost completely withered))	2 (Herbicidal rate of 20% or more and less than 40%)	5 (Herbicidal rate of 90% or more (almost completely withered))	0 (Herbicidal rate of 5% or less (almost no effect))	5 (Herbicidal rate of 90% or more (almost completely withered))	4 (Herbicidal rate of 70% or more and less than 90%)	5 (Herbicidal rate of 90% or more (almost completely withered))	5 (Herbicidal rate of 90% or more (almost completely withered))	3 (Herbicidal rate of 40% or more and less than 70%)	4 (Herbicidal rate of 70% or more and less than 90%)	4 (Herbicidal rate of 70% or more and less than 90%)	5 (Herbicidal rate of 90% or more (almost completely withered))	5 (Herbicidal rate of 90% or more (almost completely withered))
CCCOc1ccc(-c2oc3ccccc3c2-c2c(O)c(C)nn(C)c2=O)cc1 [8-003]	5 (Herbicidal rate of 90% or more (almost completely withered))	5 (Herbicidal rate of 90% or more (almost completely withered))	3 (Herbicidal rate of 40% or more and less than 70%)	3 (Herbicidal rate of 40% or more and less than 70%)	2 (Herbicidal rate of 20% or more and less than 40%)	0 (Herbicidal rate of 5% or less (almost no effect))	1 (Herbicidal rate of 5% or more and less than 20%)	4 (Herbicidal rate of 70% or more and less than 90%)	1 (Herbicidal rate of 5% or more and less than 20%)	5 (Herbicidal rate of 90% or more (almost completely withered))	3 (Herbicidal rate of 40% or more and less than 70%)	4 (Herbicidal rate of 70% or more and less than 90%)	2 (Herbicidal rate of 20% or more and less than 40%)	5 (Herbicidal rate of 90% or more (almost completely withered))	5 (Herbicidal rate of 90% or more (almost completely withered))	1 (Herbicidal rate of 5% or more and less than 20%)	4 (Herbicidal rate of 70% or more and less than 90%)	4 (Herbicidal rate of 70% or more and less than 90%)	0 (Herbicidal rate of 5% or less (almost no effect))	5 (Herbicidal rate of 90% or more (almost completely withered))
COc1ccccc1-c1sc2c(Br)c(OC)ccc2c1-c1c(O)c(C)nn(C)c1=O [7-002]	3 (Herbicidal rate of 40% or more and less than 70%)	3 (Herbicidal rate of 40% or more and less than 70%)	2 (Herbicidal rate of 20% or more and less than 40%)	2 (Herbicidal rate of 20% or more and less than 40%)	0 (Herbicidal rate of 5% or less (almost no effect))	0 (Herbicidal rate of 5% or less (almost no effect))	0 (Herbicidal rate of 5% or less (almost no effect))	0 (Herbicidal rate of 5% or less (almost no effect))	1 (Herbicidal rate of 5% or more and less than 20%)	5 (Herbicidal rate of 90% or more (almost completely withered))	4 (Herbicidal rate of 70% or more and less than 90%)	3 (Herbicidal rate of 40% or more and less than 70%)	0 (Herbicidal rate of 5% or less (almost no effect))	5 (Herbicidal rate of 90% or more (almost completely withered))	5 (Herbicidal rate of 90% or more (almost completely withered))	0 (Herbicidal rate of 5% or less (almost no effect))	0 (Herbicidal rate of 5% or less (almost no effect))	5 (Herbicidal rate of 90% or more (almost completely withered))	5 (Herbicidal rate of 90% or more (almost completely withered))	4 (Herbicidal rate of 70% or more and less than 90%)

Source: patent US20230085307A1, “PYRIDAZINONE COMPOUND AND HERBICIDE” (NISSAN CHEMICAL CORPORATION, priority 2019, published 2023)
